These results are taken from patent publication US20250313535A1, “ALPHA 4 BETA 7 INTEGRIN MODULATORS AND USES THEREOF” (DICE MOLECULES SV, INC., priority 2022, published 2025).

For one test, the system named is patients. Conditions: clinical trials; at the end of one year of treatment; cited from earlier work.
For a further test, the target named is α4β1 integrin (Homo sapiens (Human), UniProt P05556+P13612). Nature of the test: Integrin Adhesion Assay: Protocol 2 (VCAM-coated plate, Jurkat cells, CellTiter GLO readout). Format: cell-based. The conditions noted are these: determined by at least one of the assays described (protocol not specified). In a few lines:
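Jurkat cells (2×10^6 per mL) adhered to VCAM-coated (0.1 ug/well), BSA-blocked wells with compound (1% DMSO) for 1 h at 37° C in 10 mM HEPES, 150 mM NaCl, 1 mM MnCl2, 0.1 mM CaCl2. After four washes, bound cells were quantified by CellTiter-Glo luminescence. Percent inhibition versus DMSO and control-compound wells was fitted to a 4-parameter curve.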
Background: In ATP-based viability assays light output follows the ATP content of the culture.

A further test addresses α4β7 integrin (Homo sapiens (Human), UniProt P13612+P26010). The test is described as follows: Integrin Adhesion Assay: Protocol 1 (MAdCAM-coated plate, RPMI-8866 cells, CellTiter GLO readout). Format: cell-based. Conditions: integrin adhesion assay; determined by at least one of the assays described (protocol not specified). In a few lines:
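RPMI-8866 cells (2×10^6 per mL) added with compounds (1% DMSO) to MAdCAM-coated wells blocked in HEPES/NaCl buffer with 1 mM MnCl2, 0.1 mM CaCl2, 1% BSA; 1 h at 37° C, 5% CO2. After four washes, bound cells read by CellTiter GLO luminescence; % inhibition vs DMSO and control wells, 4-parameter fit.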

Sequence of α4β7 integrin (P13612 34-1032): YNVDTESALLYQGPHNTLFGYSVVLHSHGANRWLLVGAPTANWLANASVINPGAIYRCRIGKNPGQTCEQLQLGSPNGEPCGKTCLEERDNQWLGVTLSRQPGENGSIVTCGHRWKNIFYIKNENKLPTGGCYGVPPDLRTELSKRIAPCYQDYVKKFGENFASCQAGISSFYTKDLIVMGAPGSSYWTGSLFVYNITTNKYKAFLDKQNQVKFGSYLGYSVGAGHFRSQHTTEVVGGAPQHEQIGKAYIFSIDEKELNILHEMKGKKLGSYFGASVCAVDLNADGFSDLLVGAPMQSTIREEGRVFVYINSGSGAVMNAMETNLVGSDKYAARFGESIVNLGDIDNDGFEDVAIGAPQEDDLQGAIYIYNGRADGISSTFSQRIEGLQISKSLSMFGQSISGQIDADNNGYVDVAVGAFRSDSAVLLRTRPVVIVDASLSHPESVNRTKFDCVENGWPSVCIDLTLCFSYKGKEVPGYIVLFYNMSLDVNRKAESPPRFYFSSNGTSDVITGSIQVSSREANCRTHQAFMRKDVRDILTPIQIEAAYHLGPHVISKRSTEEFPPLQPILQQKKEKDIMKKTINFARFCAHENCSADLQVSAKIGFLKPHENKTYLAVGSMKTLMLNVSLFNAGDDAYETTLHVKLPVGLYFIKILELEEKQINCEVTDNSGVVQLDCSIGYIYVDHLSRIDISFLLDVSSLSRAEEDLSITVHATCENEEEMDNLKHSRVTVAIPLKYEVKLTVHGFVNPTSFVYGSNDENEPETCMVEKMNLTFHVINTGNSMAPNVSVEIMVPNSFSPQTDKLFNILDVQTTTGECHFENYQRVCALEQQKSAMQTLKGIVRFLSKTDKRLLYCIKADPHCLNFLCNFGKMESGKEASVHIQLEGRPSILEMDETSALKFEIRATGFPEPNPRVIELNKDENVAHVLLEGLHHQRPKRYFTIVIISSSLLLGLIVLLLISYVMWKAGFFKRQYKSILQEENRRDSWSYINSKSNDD
Sequence of α4β7 integrin (P26010 20-798): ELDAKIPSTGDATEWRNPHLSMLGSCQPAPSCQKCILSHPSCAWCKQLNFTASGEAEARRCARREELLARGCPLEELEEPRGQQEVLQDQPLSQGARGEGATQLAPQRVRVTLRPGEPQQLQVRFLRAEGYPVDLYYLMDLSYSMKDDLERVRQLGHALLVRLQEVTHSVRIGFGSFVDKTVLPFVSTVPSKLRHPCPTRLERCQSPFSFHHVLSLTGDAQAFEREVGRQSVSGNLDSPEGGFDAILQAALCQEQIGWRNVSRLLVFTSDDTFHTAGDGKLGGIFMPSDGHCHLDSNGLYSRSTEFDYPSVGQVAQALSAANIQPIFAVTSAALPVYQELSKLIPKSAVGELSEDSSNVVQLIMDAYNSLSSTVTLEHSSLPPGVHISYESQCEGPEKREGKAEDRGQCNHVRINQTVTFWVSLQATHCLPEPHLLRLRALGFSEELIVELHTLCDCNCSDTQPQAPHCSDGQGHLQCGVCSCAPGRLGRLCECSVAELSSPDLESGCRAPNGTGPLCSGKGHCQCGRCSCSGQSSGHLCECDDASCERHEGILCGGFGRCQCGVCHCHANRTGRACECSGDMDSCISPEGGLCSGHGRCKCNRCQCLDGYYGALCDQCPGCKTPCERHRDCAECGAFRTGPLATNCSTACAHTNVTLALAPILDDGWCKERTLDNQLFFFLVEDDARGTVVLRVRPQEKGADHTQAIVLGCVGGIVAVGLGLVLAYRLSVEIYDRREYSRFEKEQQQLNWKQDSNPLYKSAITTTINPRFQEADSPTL
Sequence of α4β1 integrin (P13612 34-1032): as the sequence (P13612 34-1032) above
Sequence of α4β1 integrin (P05556 21-798): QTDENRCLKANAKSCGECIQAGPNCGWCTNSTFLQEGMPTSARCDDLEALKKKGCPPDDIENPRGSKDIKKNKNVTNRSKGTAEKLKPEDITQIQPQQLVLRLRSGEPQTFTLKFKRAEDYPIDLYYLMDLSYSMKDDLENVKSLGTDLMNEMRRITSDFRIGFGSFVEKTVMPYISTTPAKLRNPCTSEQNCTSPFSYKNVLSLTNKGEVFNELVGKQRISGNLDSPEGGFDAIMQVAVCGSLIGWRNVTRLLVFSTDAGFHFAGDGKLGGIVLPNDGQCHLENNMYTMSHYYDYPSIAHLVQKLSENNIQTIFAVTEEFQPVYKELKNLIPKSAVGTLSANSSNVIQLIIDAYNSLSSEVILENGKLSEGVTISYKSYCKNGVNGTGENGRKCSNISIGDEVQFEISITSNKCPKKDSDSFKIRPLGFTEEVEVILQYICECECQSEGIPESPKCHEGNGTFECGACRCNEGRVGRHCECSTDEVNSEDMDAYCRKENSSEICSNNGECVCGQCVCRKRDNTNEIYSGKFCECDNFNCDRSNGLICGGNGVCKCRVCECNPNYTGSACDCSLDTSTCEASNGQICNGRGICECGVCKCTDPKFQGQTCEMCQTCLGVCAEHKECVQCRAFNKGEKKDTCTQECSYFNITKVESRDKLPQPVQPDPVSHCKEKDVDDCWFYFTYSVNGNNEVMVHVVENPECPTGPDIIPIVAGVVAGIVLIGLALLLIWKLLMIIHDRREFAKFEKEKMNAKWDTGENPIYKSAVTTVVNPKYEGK

In the case of vedolizumab [ENTYVIO], the “patients receiving ENTYVIO achieved remission” value with patients is given as “approximately 30%”.
One may read the IC50 as the midpoint of a concentration-inhibition curve. Read a high IC50 as lower potency. As to `Cn1ccc(C(F)(F)F)c(-c2nccc3c(C[C@H](NC(=O)c4c(F)cc(N5CCOC[C@@H]5C(F)(F)F)cc4CN4CCC(F)(F)CC4)C(=O)O)cccc23)c1=O` [Compound 226], the IC50 against α4β1 integrin is > 1000 nM; against α4β7 integrin it was < 10 nM.
Taken in the same sequence, the figures for `Cn1ccc(=O)n(-c2cccc3c(C[C@H](NC(=O)c4cc5ncn(CC(F)(F)F)c5cc4F)C(=O)O)cccc23)c1=O` [Compound 124] were > 1000 nM and 10 to 100 nM.
Taken in the same sequence, the figures for `Cn1ccc(C(F)(F)F)c(-c2nccc3c(C[C@H](NC(=O)c4c(Cl)cc(N5CCOC[C@@H]5C(F)(F)F)cc4CN4CCOCC4)C(=O)O)cccc23)c1=O` [Compound 225] were > 1000 nM and < 10 nM.
As to `Cn1ccc(=O)n(-c2cccc3c(C[C@H](NC(=O)c4c(F)cc(C#N)cc4F)C(=O)O)cccc23)c1=O` [Compound 131], the results for the IC50 at α4β1 integrin and at α4β7 integrin were 100 to 1000 nM and 10 to 100 nM, respectively.
Taken in the same sequence, the figures for `Cn1ccc(=O)n(-c2cccc3c(C[C@H](NC(=O)C4(C)CCC(F)(F)CC4)C(=O)O)cccc23)c1=O` [Compound 63] were > 1000 nM and 10 to 100 nM.
Taken in the same sequence, the figures for `C[C@H]1COCCN1c1cc(F)c(C(=O)N[C@@H](Cc2cccc3c(-c4c(C(F)(F)F)ccn(C)c4=O)nccc23)C(=O)O)c(F)c1` [Compound 216] were > 1000 nM and 10 to 100 nM.
As to `Cn1ccc(=O)n(-c2cccc3c(C[C@H](NC(=O)C4(C)CCC(C)(C)CC4)C(=O)O)cccc23)c1=O` [Compound 162], the IC50 against α4β1 integrin is > 1000 nM; against α4β7 integrin it was 100 to 1000 nM.
For `Cn1c(=O)ccn(-c2cccc3c(C[C@H](NC(=O)c4c(F)cccc4F)C(=O)O)cccc23)c1=O` [Compound 4], the IC50 against α4β1 integrin is > 1000 nM; against α4β7 integrin, 10 to 100 nM.
For the molecule `C/C=C/c1cn(C)c(=O)n(-c2cccc3c(C[C@H](NC(=O)c4c(F)cccc4F)C(=O)O)cccc23)c1=O` [Compound 141], the IC50 against α4β1 integrin is > 1000 nM; at α4β7 integrin it was 10 to 100 nM.
Taken in the same sequence, the figures for `O=C(N[C@@H](Cc1cccc2c(-c3cccc4ccncc34)nccc12)C(=O)O)c1c(F)cc(CN2CCOCC2)cc1F` [Compound 223] were > 1000 nM and > 1000 nM.
For `Cn1ccc(=O)n(-c2cccc3c(C[C@H](NC(=O)c4ccc5cc(C(=O)N6CCC[C@@H]6c6ccccc6)ccc5c4)C(=O)O)cccc23)c1=O` [Compound 49], the concentration for half-maximal inhibition (IC50) against α4β1 integrin and against α4β7 integrin was > 1000 nM throughout.
Consider `Cc1nccc(F)c1C(=O)N[C@@H](Cc1cccc2c(-n3c(=O)ccn(C)c3=O)cccc12)C(=O)O` [Compound 17], for which the results for the IC50 at α4β1 integrin and on α4β7 integrin were > 1000 nM and 10 to 100 nM, respectively.
Regarding `CN1CCN(c2cc(F)c(C(=O)N[C@@H](Cc3cccc4c(-c5c(C(F)(F)F)ccn(C)c5=O)nccc34)C(=O)O)c(F)c2)[C@@H](C(F)(F)F)C1` [Compound 249], the IC50 on α4β1 integrin was > 1000 nM; against α4β7 integrin it was 10 to 100 nM.
Taken in the same sequence, the figures for `Cn1ccc(C(F)(F)F)c(-c2nccc3c(C[C@H](NC(=O)c4c(F)cccc4F)C(=O)O)cccc23)c1=O` [Compound 210] were > 1000 nM and < 10 nM.
